The source of these data is patent US10030020B2, “Spirocycle compounds and methods of making and using same” (Abide Therapeutics, Inc., priority 2016, dated 2018).

Format in all cases: biochemical
Assay [1] deals with ABHD6 (Mus musculus (Mouse), UniProt Q8R2Y0). Kind of assay: In vitro competitive activity-based protein profiling (mouse brain membrane fraction or cell lysates), ABHD6 band. The conditions noted are these: for inhibition at 1 µM: read-out: ABHD6 % Inh 1 μM (mouse); for IC50: competitive ABPP. The essentials: (§1)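 Residual hydrolase activity was measured as gel band fluorescence after FP-Rh labelling (30 min, 37° C) of proteomes pretreated 30 min at 37° C with inhibitor.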

Assay [2] deals with FAAH (Mus musculus (Mouse), UniProt O08914). Kind of assay: In vitro competitive activity-based protein profiling (mouse brain membrane fraction or cell lysates), FAAH band. The conditions noted are these: for inhibition at 1 µM: read-out: FAAH % Inh 1 μM (mouse); for IC50: competitive ABPP. An outline of the steps: as §1
In assay [3] the target is MAGL (Mus musculus (Mouse), UniProt O35678). Description: In vitro competitive activity-based protein profiling (mouse brain membrane fraction or cell lysates), MAGL band. The conditions noted are these: for inhibition at 1 µM: read-out: MAGL % Inh 1 μM (mouse); for IC50: competitive ABPP. On the procedure:
In Vitro Competitive Activity-Based Protein Profiling.
Proteomes (mouse brain membrane fraction or cell lysates) (50 μL, 1.0 mg/mL total protein concentration) were preincubated with varying concentrations of inhibitors at 37° C. After 30 min, FP—Rh (1.0 μL, 50 μM in DMSO) was added and the mixture was incubated for another 30 min at 37° C. Reactions were quenched with SDS loading buffer (50 μL-4×) and run on SDS-PAGE.

Where two headings read alike, the source gives them in different places.

ABHD6, sequence (Q8R2Y0 whole entry): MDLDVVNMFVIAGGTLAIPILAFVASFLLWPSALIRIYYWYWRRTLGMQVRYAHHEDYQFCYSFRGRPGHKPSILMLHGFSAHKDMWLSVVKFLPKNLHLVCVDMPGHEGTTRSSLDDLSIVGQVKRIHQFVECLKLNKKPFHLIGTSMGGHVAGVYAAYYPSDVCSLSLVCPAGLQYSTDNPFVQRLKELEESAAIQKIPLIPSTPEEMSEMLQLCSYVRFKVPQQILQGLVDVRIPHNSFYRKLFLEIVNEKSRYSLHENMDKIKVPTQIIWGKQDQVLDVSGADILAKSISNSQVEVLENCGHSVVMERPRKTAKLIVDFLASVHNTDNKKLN
MAGL, sequence (O35678 whole entry): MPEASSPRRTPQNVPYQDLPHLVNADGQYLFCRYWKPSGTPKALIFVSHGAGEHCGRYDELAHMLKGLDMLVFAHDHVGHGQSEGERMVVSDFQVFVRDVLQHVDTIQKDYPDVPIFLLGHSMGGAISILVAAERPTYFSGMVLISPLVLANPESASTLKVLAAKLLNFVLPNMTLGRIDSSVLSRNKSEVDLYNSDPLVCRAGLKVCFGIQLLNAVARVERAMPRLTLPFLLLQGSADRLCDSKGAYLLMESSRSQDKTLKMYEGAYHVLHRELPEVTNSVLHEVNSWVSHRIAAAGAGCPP
FAAH, sequence (O08914 whole entry): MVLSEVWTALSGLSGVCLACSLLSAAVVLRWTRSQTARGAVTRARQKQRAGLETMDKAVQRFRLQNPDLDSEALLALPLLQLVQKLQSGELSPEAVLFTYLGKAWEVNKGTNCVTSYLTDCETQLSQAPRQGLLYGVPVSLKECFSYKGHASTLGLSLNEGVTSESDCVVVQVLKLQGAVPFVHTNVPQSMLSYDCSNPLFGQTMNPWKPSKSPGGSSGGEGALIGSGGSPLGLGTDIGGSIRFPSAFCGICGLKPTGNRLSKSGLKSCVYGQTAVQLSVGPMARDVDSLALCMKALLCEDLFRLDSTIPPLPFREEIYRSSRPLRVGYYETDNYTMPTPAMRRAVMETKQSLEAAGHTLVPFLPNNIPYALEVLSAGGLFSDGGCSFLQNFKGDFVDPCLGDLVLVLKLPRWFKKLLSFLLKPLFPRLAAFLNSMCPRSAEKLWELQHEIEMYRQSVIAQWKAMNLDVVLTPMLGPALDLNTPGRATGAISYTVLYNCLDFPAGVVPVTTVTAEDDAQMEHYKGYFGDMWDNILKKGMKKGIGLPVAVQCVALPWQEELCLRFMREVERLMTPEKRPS

Take `CC(=O)N1CCc2cccc(CN3CCC4(CCN(C(=O)OC(C(F)(F)F)C(F)(F)F)CC4)C3)c2C1` [Example 160, 1,1,1,3,3,3-Hexafluoropropan-2-yl 2-((2-acetyl-1,2,3,4-tetrahydroisoquinolin-8-yl)methyl)-2,8-diazaspiro[4.5]decane-8-carboxylate]: the inhibition at 1 µM was at least 75% in assay [1] (mouse proteome), below 25% in assay [2] (mouse proteome) and above 75% in assay [3] (mouse proteome). In addition, the half-maximal inhibitory concentration (IC50) in assay [1] (mouse proteome) was below 0.1 µM; in assay [2] (mouse proteome) it was above 1 µM; in assay [3] (mouse proteome) it was below 0.1 µM.
On to `O=C(OC(C(F)(F)F)C(F)(F)F)N1CCC2(CCN(Cc3ccc(Cl)c(N4CCCC4)c3)C2)CC1` [Example 155, 1,1,1,3,3,3-Hexafluoropropan-2-yl 2-(4-chloro-3-(pyrrolidin-1-yl)benzyl)-2,8-diazaspiro[4.5]decane-8-carboxylate], for which the inhibition at 1 µM in assay [1] (mouse proteome) is at least 75%; in assay [2] (mouse proteome), below 25%; in assay [3] (mouse proteome) it was above 75%. Further, the half-maximal inhibitory concentration (IC50) in assay [1] (mouse proteome) was 0.1 to 1 µM; in assay [2] (mouse proteome), above 1 µM; in assay [3] (mouse proteome), below 0.1 µM.
For the compound `O=C(OC(C(F)(F)F)C(F)(F)F)N1CCC2(CCCN2Cc2ccc(C(F)(F)F)cc2Oc2nc3ccccc3s2)CC1` [Example 171, 1,1,1,3,3,3-Hexafluoropropan-2-yl 1-(2-(benzo[d]thiazol-2-yloxy)-4-(trifluoromethyl)benzyl)-1,8-diazaspiro[4.5]decane-8-carboxylate], the inhibition at 1 µM is below 25% in assay [1] (mouse proteome), below 25% in assay [2] (mouse proteome) and above 75% in assay [3] (mouse proteome). The results for the half-maximal inhibitory concentration (IC50) in assay [1] (mouse proteome), in assay [2] (mouse proteome) and in assay [3] (mouse proteome) were above 1 µM, above 1 µM and 0.1 to 1 µM, respectively.
`O=C(OC(C(F)(F)F)C(F)(F)F)N1CCC2(CCCN2Cc2cc(Cl)cc(N3CCC(F)CC3)c2)CC1` [Example 39, 1,1,1,3,3,3-Hexafluoropropan-2-yl 1-(3-chloro-5-(4-fluoropiperidin-1-yl)benzyl)-1,8-diazaspiro[4.5]decane-8-carboxylate]: the inhibition at 1 µM was below 25% in assay [1] (mouse proteome), below 25% in assay [2] (mouse proteome) and above 75% in assay [3] (mouse proteome). Also, the results for the half-inhibitory concentration (IC50) in assay [1] (mouse proteome), in assay [2] (mouse proteome) and in assay [3] (mouse proteome) were above 1 µM, above 1 µM and below 0.1 µM, respectively.
For the compound `O=C(OC(C(F)(F)F)C(F)(F)F)N1CCC2(CCN(Cc3ccc(C(F)(F)F)c(N4CCOCC4)c3)C2)CC1` [Example 156, 1,1,1,3,3,3-Hexafluoropropan-2-yl 2-(3-morpholino-4-(trifluoromethyl)benzyl)-2,8-diazaspiro[4.5]decane-8-carboxylate], the inhibition at 1 µM in assay [1] (mouse proteome) is at least 75%; in assay [2] (mouse proteome), below 25%; in assay [3] (mouse proteome) it was above 75%. Moreover, the IC50 in assay [1] (mouse proteome) is 0.1 to 1 µM; in assay [2] (mouse proteome), above 1 µM; in assay [3] (mouse proteome) it was below 0.1 µM.
With `CS(=O)(=O)N1CCN(c2cccc(CN3CCCC34CCN(C(=O)OC(C(F)(F)F)C(F)(F)F)CC4)c2Cl)CC1` [Example 113, 1,1,1,3,3,3-Hexafluoropropan-2-yl 1-(2-chloro-3-(4-(methylsulfonyl)piperazin-1-yl)benzyl)-1,8-diazaspiro[4.5]decane-8-carboxylate], the inhibition at 1 µM in assay [1] (mouse proteome) was below 25%; in assay [2] (mouse proteome), below 25%; in assay [3] (mouse proteome) it was above 75%. Further, the IC50 in assay [1] (mouse proteome) is above 1 µM; in assay [2] (mouse proteome), above 1 µM; in assay [3] (mouse proteome) it was below 0.1 µM.
On to `O=C(OC(C(F)(F)F)C(F)(F)F)N1CCC2(CCCN2Cc2cccc(OCCN3CCCC3)c2)CC1` [Example 12, 1,1,1,3,3,3-Hexafluoropropan-2-yl 1-(3-(2-(pyrrolidin-1-yl)ethoxy)benzyl)-1,8-diazaspiro[4.5]decane-8-carboxylate], for which the inhibition at 1 µM in assay [1] (mouse proteome) was below 25%; in assay [2] (mouse proteome), below 25%; in assay [3] (mouse proteome), above 75%. The IC50 in assay [1] (mouse proteome) is above 1 µM; in assay [2] (mouse proteome) it was above 1 µM; in assay [3] (mouse proteome), 0.1 to 1 µM.
Turning to `Cc1ccc(CN2CCC3(CCN(C(=O)OC(C(F)(F)F)C(F)(F)F)CC3)C2)cc1Cl` [Example 136, 1,1,1,3,3,3-Hexafluoropropan-2-yl 2-(3-chloro-4-methylbenzyl)-2,8-diazaspiro[4.5]decane-8-carboxylate], the figures for the inhibition at 1 µM in assay [1] (mouse proteome), in assay [2] (mouse proteome) and in assay [3] (mouse proteome) were at least 75%, below 25% and above 75%, respectively. For the same compound, the results for the concentration for half-maximal inhibition (IC50) in assay [1] (mouse proteome), in assay [2] (mouse proteome) and in assay [3] (mouse proteome) were 0.1 to 1 µM, above 1 µM and 0.1 to 1 µM, respectively.
Take `O=C(O)c1cccc(CN2CCCC23CCN(C(=O)OC(C(F)(F)F)C(F)(F)F)CC3)c1` [Example 242]: the inhibition at 1 µM was 25 to 75% in assay [1] (mouse), below 25% in assay [2] (mouse) and 25 to 75% in assay [3] (mouse).
For the compound `CC(C)CN1CCc2cccc(CN3CCCC34CCN(C(=O)OC(C(F)(F)F)C(F)(F)F)CC4)c2C1` [Example 149, 1,1,1,3,3,3-Hexafluoropropan-2-yl 1-((2-(2-methylpropyl)-1,2,3,4-tetrahydroisoquinolin-8-yl)methyl)-1,8-diazaspiro[4.5]decane-8-carboxylate], the inhibition at 1 µM in assay [1] (mouse proteome) was 25 to 75%; in assay [2] (mouse proteome) it was below 25%; in assay [3] (mouse proteome), above 75%. The IC50 is above 1 µM in assay [1] (mouse proteome), above 1 µM in assay [2] (mouse proteome) and 0.1 to 1 µM in assay [3] (mouse proteome).
Turning to `O=C(OC(C(F)(F)F)C(F)(F)F)N1CCC2(CCCN2Cc2ccc(Cl)cc2N2CCS(=O)(=O)CC2)CC1` [Example 103, 1,1,1,3,3,3-Hexafluoropropan-2-yl 1-(4-chloro-2-(1,1-dioxidothiomorpholino)benzyl)-1,8-diazaspiro[4.5]decane-8-carboxylate], the inhibition at 1 µM was at least 75% in assay [1] (mouse proteome), below 25% in assay [2] (mouse proteome) and above 75% in assay [3] (mouse proteome). In addition, the IC50 in assay [1] (mouse proteome) is 0.1 to 1 µM; in assay [2] (mouse proteome), above 1 µM; in assay [3] (mouse proteome), 0.1 to 1 µM.
For `O=C(O)[C@@H]1CCCN(c2cc(CN3CCC4(CCN(C(=O)OC(C(F)(F)F)C(F)(F)F)CC4)C3)cc(C(F)(F)F)c2)C1` [Example 208], the inhibition at 1 µM in assay [1] (mouse proteome) was at least 75%; in assay [2] (mouse proteome), below 25%; in assay [3] (mouse proteome), above 75%.
As to `O=C(OC(C(F)(F)F)C(F)(F)F)N1CCC2(CCCN2Cc2cccc3c2CN(C2CC2)CC3)CC1` [Example 148, 1,1,1,3,3,3-Hexafluoropropan-2-yl 1-((2-cyclopropyl-1,2,3,4-tetrahydroisoquinolin-8-yl)methyl)-1,8-diazaspiro[4.5]decane-8-carboxylate], the inhibition at 1 µM in assay [1] (mouse proteome) is below 25%; in assay [2] (mouse proteome) it was below 25%; in assay [3] (mouse proteome), above 75%. Further, the concentration for half-maximal inhibition (IC50) in assay [1] (mouse proteome) is above 1 µM; in assay [2] (mouse proteome), above 1 µM; in assay [3] (mouse proteome), below 0.1 µM.
Regarding `CC1(C)CC2(CCN(C(=O)OC(C(F)(F)F)C(F)(F)F)CC2)CN1Cc1cc(Cl)cc(N2CCOCC2)c1` [Example 186, 1,1,1,3,3,3-Hexafluoropropan-2-yl 2-(3-chloro-5-morpholinobenzyl)-3,3-dimethyl-2,8-diazaspiro[4.5]decane-8-carboxylate], the inhibition at 1 µM in assay [1] (mouse proteome) is 25 to 75%; in assay [2] (mouse proteome), below 25%; in assay [3] (mouse proteome), above 75%. Further, the IC50 was 0.1 to 1 µM in assay [1] (mouse proteome), above 1 µM in assay [2] (mouse proteome) and 0.1 to 1 µM in assay [3] (mouse proteome).
Turning to `O=C(OC(C(F)(F)F)C(F)(F)F)N1CCC2(CCCN2Cc2cccc(N3CCN(C4CC4)CC3)c2Cl)CC1` [Example 115, 1,1,1,3,3,3-Hexafluoropropan-2-yl 1-(2-chloro-3-(4-cyclopropylpiperazin-1-yl)benzyl)-1,8-diazaspiro[4.5]decane-8-carboxylate], the inhibition at 1 µM is below 25% in assay [1] (mouse proteome), below 25% in assay [2] (mouse proteome) and above 75% in assay [3] (mouse proteome). The IC50 in assay [1] (mouse proteome) and in assay [2] (mouse proteome) was above 1 µM throughout.
As for `O=C(OC(C(F)(F)F)C(F)(F)F)N1CCC2(CCCN2Cc2ccc(C(F)(F)F)cc2OC2CCOCC2)CC1` [Example 169, 1,1,1,3,3,3-Hexafluoropropan-2-yl 1-(2-(tetrahydro-2H-pyran-4-yloxy)-4-(trifluoromethyl)benzyl)-1,8-diazaspiro[4.5]decane-8-carboxylate], the inhibition at 1 µM in assay [1] (mouse proteome) is 25 to 75%; in assay [2] (mouse proteome), below 25%; in assay [3] (mouse proteome), above 75%. Further, the 50% inhibitory concentration (IC50) was above 1 µM in assay [1] (mouse proteome), above 1 µM in assay [2] (mouse proteome) and below 0.1 µM in assay [3] (mouse proteome).
Take `O=C(O)c1ccccc1CN1CCCC12CCN(C(=O)OC(C(F)(F)F)C(F)(F)F)CC2` [Example 251]: the figures for the inhibition at 1 µM in assay [1] (mouse), in assay [2] (mouse) and in assay [3] (mouse) were below 25%, below 25% and 25 to 75%, respectively.
Consider `O=C(OC(C(F)(F)F)C(F)(F)F)N1CCC2(CCCN2Cc2cccc(OCCN3CCCCC3)c2)CC1` [Example 11, 1,1,1,3,3,3-Hexafluoropropan-2-yl 1-(3-(2-(piperidin-1-yl)ethoxy)benzyl)-1,8-diazaspiro[4.5]decane-8-carboxylate], for which the inhibition at 1 µM in assay [1] (mouse proteome) is below 25%; in assay [2] (mouse proteome), below 25%; in assay [3] (mouse proteome), above 75%. For the same compound, the IC50 in assay [1] (mouse proteome) was above 1 µM; in assay [2] (mouse proteome), above 1 µM; in assay [3] (mouse proteome), 0.1 to 1 µM.

Broadly, the IC50 is the midpoint of a concentration-inhibition curve.
